Measurements published in US9422297B2, “Tricyclic compounds having cytostatic and/or cytotoxic activity and methods of use thereof” (Duquesne University of the Holy Ghost, priority 2007, dated 2016).
Where two headings read alike, the source gives them in different places.

Columns and labels:
[1] = molecular target: Flk-1 kinase (Homo sapiens (Human), UniProt P35968); experiment: Flk-1 kinase inhibition; format: biochemical; conditions: Table 3
[2] = A431 cytotoxicity assay; format: cell-based; conditions: human, A431 cells
[3] = molecular target: EGFR kinase (Homo sapiens (Human), UniProt P00533); experiment: EGFR kinase inhibition; format: biochemical
EGFR kinase, sequence (P00533 25-1210): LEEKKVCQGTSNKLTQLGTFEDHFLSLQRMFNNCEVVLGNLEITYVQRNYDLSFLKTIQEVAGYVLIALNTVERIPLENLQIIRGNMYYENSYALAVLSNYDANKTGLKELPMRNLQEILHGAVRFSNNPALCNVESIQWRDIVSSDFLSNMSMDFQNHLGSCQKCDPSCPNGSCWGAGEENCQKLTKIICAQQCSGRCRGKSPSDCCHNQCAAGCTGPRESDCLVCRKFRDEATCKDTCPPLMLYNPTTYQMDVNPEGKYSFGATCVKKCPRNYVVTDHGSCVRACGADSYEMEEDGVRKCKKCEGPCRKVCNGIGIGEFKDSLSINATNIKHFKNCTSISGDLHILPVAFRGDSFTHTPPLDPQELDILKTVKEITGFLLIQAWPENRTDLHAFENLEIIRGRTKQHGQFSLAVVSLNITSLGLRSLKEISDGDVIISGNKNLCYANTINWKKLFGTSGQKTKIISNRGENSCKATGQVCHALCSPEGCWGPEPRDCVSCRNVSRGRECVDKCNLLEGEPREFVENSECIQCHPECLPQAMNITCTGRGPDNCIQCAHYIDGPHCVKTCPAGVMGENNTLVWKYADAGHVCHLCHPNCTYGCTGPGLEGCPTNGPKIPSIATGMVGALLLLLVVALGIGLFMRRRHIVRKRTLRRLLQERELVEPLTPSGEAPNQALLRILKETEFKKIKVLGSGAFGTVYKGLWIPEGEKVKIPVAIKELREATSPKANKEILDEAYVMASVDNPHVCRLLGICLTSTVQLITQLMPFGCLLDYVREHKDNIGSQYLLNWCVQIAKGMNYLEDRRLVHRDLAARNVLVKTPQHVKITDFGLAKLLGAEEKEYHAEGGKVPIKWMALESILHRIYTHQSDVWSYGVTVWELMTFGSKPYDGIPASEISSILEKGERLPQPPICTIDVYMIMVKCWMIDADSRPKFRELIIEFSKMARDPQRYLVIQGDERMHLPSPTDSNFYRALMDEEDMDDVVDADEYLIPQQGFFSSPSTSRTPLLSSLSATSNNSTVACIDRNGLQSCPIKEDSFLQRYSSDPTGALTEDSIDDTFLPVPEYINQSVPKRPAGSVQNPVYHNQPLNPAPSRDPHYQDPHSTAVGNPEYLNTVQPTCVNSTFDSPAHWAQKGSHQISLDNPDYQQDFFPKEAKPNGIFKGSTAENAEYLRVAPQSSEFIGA

[4] = molecular target: PDGFR-β kinase (Homo sapiens (Human), UniProt P09619); experiment: PDGFR-β kinase inhibition; format: biochemical
PDGFR-β kinase, sequence (P09619 33-1106): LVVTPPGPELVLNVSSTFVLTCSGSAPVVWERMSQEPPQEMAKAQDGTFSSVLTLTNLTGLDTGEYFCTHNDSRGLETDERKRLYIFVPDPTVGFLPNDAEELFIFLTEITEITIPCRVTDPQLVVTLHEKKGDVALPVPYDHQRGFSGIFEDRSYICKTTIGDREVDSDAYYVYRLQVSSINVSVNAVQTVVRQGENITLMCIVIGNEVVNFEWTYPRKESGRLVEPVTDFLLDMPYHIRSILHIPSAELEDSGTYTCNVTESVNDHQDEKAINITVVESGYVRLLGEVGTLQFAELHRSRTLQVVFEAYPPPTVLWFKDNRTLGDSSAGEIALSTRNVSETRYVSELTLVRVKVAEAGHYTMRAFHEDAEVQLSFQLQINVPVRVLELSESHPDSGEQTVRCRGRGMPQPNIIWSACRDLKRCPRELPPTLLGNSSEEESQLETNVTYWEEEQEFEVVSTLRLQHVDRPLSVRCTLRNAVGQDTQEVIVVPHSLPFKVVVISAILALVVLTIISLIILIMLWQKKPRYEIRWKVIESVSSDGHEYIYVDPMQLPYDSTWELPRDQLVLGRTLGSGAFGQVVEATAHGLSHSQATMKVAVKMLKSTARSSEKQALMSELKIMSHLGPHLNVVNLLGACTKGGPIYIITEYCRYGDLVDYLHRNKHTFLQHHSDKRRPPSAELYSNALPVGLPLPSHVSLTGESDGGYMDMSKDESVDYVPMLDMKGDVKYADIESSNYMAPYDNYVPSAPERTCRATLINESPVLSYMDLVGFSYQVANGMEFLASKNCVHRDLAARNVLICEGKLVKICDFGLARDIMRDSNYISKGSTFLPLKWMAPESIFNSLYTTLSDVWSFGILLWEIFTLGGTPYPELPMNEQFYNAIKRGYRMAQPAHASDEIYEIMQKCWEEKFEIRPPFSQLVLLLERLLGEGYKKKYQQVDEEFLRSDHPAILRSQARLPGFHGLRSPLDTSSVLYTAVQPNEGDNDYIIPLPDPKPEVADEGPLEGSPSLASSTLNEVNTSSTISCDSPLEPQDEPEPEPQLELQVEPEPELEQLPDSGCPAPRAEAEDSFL

[5] = molecular target: Thymidylate synthase (Homo sapiens (Human), UniProt P04818); experiment: Thymidylate synthase inhibition, human; format: biochemical; conditions: Human TS
Thymidylate synthase (Homo sapiens (Human), UniProt P04818), sequence (P04818 whole entry): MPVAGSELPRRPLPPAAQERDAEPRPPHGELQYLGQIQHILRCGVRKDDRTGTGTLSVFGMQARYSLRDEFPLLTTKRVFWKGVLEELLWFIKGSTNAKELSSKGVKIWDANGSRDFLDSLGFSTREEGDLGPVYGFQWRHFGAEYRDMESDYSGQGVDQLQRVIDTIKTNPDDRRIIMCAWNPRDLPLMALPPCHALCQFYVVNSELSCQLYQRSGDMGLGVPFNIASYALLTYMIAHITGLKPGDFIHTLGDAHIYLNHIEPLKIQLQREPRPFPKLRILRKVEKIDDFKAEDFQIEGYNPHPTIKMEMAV

[6] = molecular target: Thymidylate synthase (Toxoplasma gondii, UniProt Q07422); experiment: Thymidylate synthase inhibition, Toxo; format: biochemical
[7] = molecular target: Thymidylate synthase (Escherichia coli (strain K12), UniProt P0A884); experiment: Thymidylate synthase inhibition, E. coli; format: biochemical
Thymidylate synthase (Escherichia coli (strain K12), UniProt P0A884), sequence (P0A884 whole entry, looked up): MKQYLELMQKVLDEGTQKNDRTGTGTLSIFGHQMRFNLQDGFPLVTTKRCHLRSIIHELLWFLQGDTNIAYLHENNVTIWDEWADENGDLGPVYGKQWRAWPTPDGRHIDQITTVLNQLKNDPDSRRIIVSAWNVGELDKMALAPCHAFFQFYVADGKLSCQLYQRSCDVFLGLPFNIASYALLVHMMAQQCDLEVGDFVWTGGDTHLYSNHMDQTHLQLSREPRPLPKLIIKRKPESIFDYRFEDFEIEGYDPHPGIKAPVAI

[8] = molecular target: VEGFR-2 kinase (Homo sapiens (Human), UniProt P35968); experiment: VEGFR-2 kinase inhibition; format: biochemical; conditions: Table 1
VEGFR-2 kinase, sequence (P35968 20-1356): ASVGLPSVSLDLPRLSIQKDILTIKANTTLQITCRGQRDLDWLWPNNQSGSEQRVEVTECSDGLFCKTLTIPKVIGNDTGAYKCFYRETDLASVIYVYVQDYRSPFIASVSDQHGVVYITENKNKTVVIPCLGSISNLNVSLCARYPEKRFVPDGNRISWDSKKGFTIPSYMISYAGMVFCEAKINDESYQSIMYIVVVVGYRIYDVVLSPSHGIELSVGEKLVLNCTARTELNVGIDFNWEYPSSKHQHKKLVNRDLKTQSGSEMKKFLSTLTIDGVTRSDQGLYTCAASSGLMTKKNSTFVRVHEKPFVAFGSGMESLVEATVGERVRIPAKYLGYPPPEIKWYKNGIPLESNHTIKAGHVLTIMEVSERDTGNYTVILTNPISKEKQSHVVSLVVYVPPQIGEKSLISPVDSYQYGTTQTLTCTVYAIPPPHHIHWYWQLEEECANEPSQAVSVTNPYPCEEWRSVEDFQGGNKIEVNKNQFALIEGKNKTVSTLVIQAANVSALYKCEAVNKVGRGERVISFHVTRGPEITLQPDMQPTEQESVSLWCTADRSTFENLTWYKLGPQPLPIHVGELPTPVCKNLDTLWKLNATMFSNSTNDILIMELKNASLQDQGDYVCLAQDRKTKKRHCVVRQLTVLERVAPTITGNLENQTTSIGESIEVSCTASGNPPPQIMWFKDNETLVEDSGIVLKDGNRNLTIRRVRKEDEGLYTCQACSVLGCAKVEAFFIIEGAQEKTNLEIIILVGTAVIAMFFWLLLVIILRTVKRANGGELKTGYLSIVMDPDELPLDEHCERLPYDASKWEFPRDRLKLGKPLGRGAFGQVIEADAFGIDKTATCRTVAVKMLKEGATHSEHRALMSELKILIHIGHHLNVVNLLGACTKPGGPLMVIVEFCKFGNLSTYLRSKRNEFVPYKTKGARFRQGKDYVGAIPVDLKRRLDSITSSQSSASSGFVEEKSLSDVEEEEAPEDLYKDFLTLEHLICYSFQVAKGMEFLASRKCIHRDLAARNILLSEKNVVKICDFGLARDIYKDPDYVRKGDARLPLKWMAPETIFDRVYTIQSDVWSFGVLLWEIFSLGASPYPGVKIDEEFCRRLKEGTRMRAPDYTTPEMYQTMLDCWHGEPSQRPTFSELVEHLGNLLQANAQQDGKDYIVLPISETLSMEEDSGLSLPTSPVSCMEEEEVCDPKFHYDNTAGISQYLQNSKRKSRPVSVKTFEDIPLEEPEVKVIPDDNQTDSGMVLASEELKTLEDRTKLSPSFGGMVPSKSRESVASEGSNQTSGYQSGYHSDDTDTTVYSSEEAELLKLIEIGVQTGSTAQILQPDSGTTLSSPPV

[9] = system: COLO-205 metastatic human colon cancer cells; experiment: COLO-205 tumors implanted in athymic mice; format: in vivo
[10] = system: CAM angiogenesis; experiment: CAM assay, inhibition of angiogenesis; format: in vivo; conditions: Table 3
[11] = Table 3, read-out: PDGFR-β kinase
[12] = athymic mice, 25 mg/kg 3× weekly

Flk-1 kinase, sequence (P35968 20-1356): as above

IC50 [1] [µM]	IC50 ([3]; Table 3, read-out: EGFR kinase) [µM]	IC50 [4, 11] [µM]	Structure (SMILES)	IC50 ([2]; Table 3) [µM]	also measured
43	> 200	75.5	COc1cccc(Nc2nc(N)nc3c2-c2ccccc2C3)c1 [AAG145-159]	13.9	
			Cc1ccc(Sc2cccc3[nH]c4nc(N)nc(N)c4c23)cc1 [AAG-148-311, 5-[(4-methylphenyl)thio]-9H-pyrimido[4,5-b]indole-2,4-diamine]		IC50 [5]: 0.39 µM; IC50 [6]: 0.18 µM
			Nc1nc(N)c2c(n1)[nH]c1cccc(Sc3ccccc3)c12 [AAG-148-43, 5-(phenylthio)-9H-pyrimido[4,5-b]indole-2,4-diamine]		IC50 ([4]; Table 1, read-out: PDGFR-β kinase inhibition): 2.8 µM; IC50 [7]: > 27 µM; IC50 ([2]; Table 1): 49.2 µM; IC50 [8]: 22.6 µM; metastasis to the liver of COLO-205 cells [9, 12]: significantly reduced metastasis to the liver; vascularity of COLO-205 primary tumors [9, 12]: reduced vascularity much better than DMBI; primary tumor growth of COLO-205 ([9]; athymic mice, 25 mg/kg three times a week): significantly reduced the growth; apparent toxicity (loss in weight of the animals) ([9]; mice, 25 mg/kg three times weekly): no apparent toxicity; IC50 [5]: 0.54 µM; IC50 ([3]; Table 1, read-out: EGFR kinase inhibition): 15.1 µM
			Cc1cc(C)c(/C=C2\C(=O)Nc3ccccc32)[nH]1 [SU5416, reference compound]	[…]	IC50 [10]: 0.032 ± 0.005 µM
55.7	> 200	7.1	Nc1nc2c(c(Nc3cccc(F)c3)n1)-c1ccccc1C2 [AAG145-161]	9.8	
134	19.6	> 500	Nc1nc2c(c(Nc3cccc(Cl)c3)n1)-c1ccccc1C2 [AAG145-157]	235	
171	> 200	43.1	Nc1nc2c(c(Nc3ccccc3)n1)-c1ccccc1C2 [AAG145-158]	4.9	
> 200	> 200	21.7	CC(C)c1ccccc1Nc1nc(N)nc2c1-c1ccccc1C2 [AAG145-124]	126	
			Nc1nc2[nH]cc(CCc3ccc(C(=O)N[C@@H](CCC(=O)O)C(=O)O)cc3)c2c(=O)[nH]1 [Pemetrexed, reference compound]		IC50 ([7]; E. coli TS, read-out: Thymidylate synthase inhibition E. coli): 15 µM; IC50 [5]: 29 µM

Structure (SMILES)	IC50 [1] [µM]	IC50 ([3]; Table 3, read-out: EGFR kinase) [µM]	IC50 [4, 11] [µM]	IC50 ([2]; Table 3) [µM]	also measured
Nc1nc2c(c(Nc3ccc(Cl)cc3F)n1)-c1ccccc1C2 [AAG145-135]	197	11.7		9.7	
CC(C)c1ccc(Nc2nc(N)nc3c2-c2ccccc2C3)cc1 [AAG145-126]	11	42.6	7.8	126	
Nc1nc2c(c(Nc3ccc(F)c(Cl)c3)n1)-c1ccccc1C2 [AAG145-164]	72.9	> 200	6.4	158	
Nc1nc2c(c(Nc3cccc(Br)c3)n1)-c1ccccc1C2 [AAG145-131]	> 200	24.1	126	> 5000	
